Entries after “also recorded” stand apart in the source; their conditions may differ. Like-named read-outs stand apart in the source and are kept apart here.
What was measured:
KU-19-19 cells = assay: CellTiter-Glo Luminescent Cell Viability Assay, KU-19-19; type: cell-based; conditions: Homo sapiens, bladder cancer cell line, Akt1 E17K/E49K, mean ± SD, n=3
Protocol: The potential in vitro antiproliferative activity of the synthesised target compounds was investigated against a number of cancer cell lines by the CellTiter‐Glo® Luminescent Cell Viability Assay (from Promega Corporation, USA, catalogue number: G7570). The half‐maximal effective concentrations (EC50) of these compounds were determined against the AN3‐CA, BT‐474, KU‐19‐19, MCF‐7, T‐47D and ZR‐75‐1 cell lines originating from various tissues, i. e., breast, endometrium and bladder (Table S1). […]
The CellTiter-Glo® Luminescent Cell Viability Assay from Promega was used for the cellular assays, performed as explained by Weisner et al.7,8 Information on the cancer cell lines are given in Table S1, the control compounds used in Figure S3 and the results in Table S2.
Table S1. The cell lines used for the cellular assays, including what cancer type they are predominantly found in, and where the cell lines were acquired form.
Cell line Cancer type Acquired from AN3CA Endometrium ATCC (provided by Prof. Jan G. Hengstler at Leibniz-Institut für Arbeitsforschung Dortmund)
KU-19-19 Bladder Deutsche Sammlung von Mikroorganismen und Zellkulturen […]
BT-474 CLS Cell Lines Service (provided by Prof. Jan G. Hengstler at […] Leibniz-Institut für Arbeitsforschung Dortmund)

BT-474 cells = assay: CellTiter-Glo Luminescent Cell Viability Assay, BT-474; type: cell-based; conditions: Homo sapiens
MCF-7 cells = assay: CellTiter-Glo Luminescent Cell Viability Assay, MCF-7; type: cell-based; conditions: Homo sapiens
Akt3 = Akt3 (Homo sapiens, UniProt Q9Y243); assay: HTRF KinEASE assay, IC50 against Akt3
Excerpt: (§1) The homogeneous time‐resolved fluorescence (HTRF®) KinEASE™ assay by Cisbio was used to determine the half‐maximal inhibitory concentration (IC50) values of the synthesised compounds against Akt1, Akt2 and Akt3 (Table 1).[26]
(§2) The HTRF® KinEASE™ assay (Cisbio) was used to determine the IC 50 values of the synthesised
(§3) al. (Akt2 and Akt3).1,5 The three wild-type Akt isoforms used were acquired from ProQinase.

wild-type Akt1 = target: T1, wild-type Akt1 (Homo sapiens, UniProt P31749); assay: LC-MS identification of covalent binders after co-incubation with Akt1; type: binding; conditions: co-incubation with Akt1, Figure S1
T1 construct: made in house
Excerpt: 2. Evaluation results … 4
4. Molecular Modelling … 57
indicated covalent binding.

T47D cells = assay: CellTiter-Glo Luminescent Cell Viability Assay, T47D; type: cell-based; conditions: Homo sapiens, breast cancer cell line, mean ± SD, n=3
Akt1 [1] = target: T2, Akt1 (Homo sapiens, UniProt P31749); assay: HTRF KinEASE assay, IC50 against Akt1
Excerpt: as §1, §2, §3

AN3CA cells = assay: CellTiter-Glo Luminescent Cell Viability Assay, AN3CA; type: cell-based; conditions: Homo sapiens, AN3-CA, read-out: EC50 AN3CA
Akt2 = target: T3, Akt2 (Homo sapiens, UniProt P31751); assay: HTRF KinEASE assay, IC50 against Akt2; type: biochemical; conditions: wild-type Akt2; mean ± SD, n=3
T3 construct: purchased ProQinase
Excerpt: as §1, §2, §3

ZR-75-1 cells = assay: CellTiter-Glo Luminescent Cell Viability Assay, ZR-75-1; type: cell-based; conditions: Homo sapiens
Akt1 [2] = target: T2, Akt1; assay: Kinetic analysis with HTRF KinEASE (time-dependent IC50), kinetic parameters of inactivation; type: biochemical; design: purchased ProQinase; conditions: mean ± SD, n=3
Excerpt: The kinetic parameters of inactivation, namely the inhibition constant (K I) and the rate constant of enzyme inactivation (k inact), are therefore preferentially used to describe irreversible inhibitors.[28] K I is defined as the concentration of inhibitor required for half of the maximum potential rate of covalent bond formation, while k inact is defined as the maximum potential rate of covalent bond formation.[29] The ratio of k inact over K I, k inact/K I, accounts for both the potency of the inhibitor (K I) and the maximum potential rate of covalent bond formation (k inact) and thus represents the second‐order rate constant describing the efficiency of covalent complex formation.[29] Using a protocol published by Krippendorff et al., K I and k inact can be directly estimated from time‐dependent IC50 determinations by kinetic analysis with HTRF® KinEASE™.[28]
Using a protocol published by Krippendorff et al., KI, kinact and kinact/KI could be directly
estimated from time-dependent IC50 determinations by kinetic analysis with HTRF® KinEASE™,

[3] = BT-474, breast cancer cell line, mean ± SD, n=3, read-out: EC50 BT‐474
[4] = MCF7, breast cancer cell line, mean ± SD, n=3, read-out: EC50 MCF‐7
[5] = IC50 Akt1, wild-type Akt1, mean ± SD, n=3
[6] = endometrium cancer cell line, mean ± SD, n=3
[7] = ZR-75-1, breast cancer cell line, mean ± SD, n=3, read-out: EC50 ZR‐75‐1

T3 sequence (P31751 whole entry): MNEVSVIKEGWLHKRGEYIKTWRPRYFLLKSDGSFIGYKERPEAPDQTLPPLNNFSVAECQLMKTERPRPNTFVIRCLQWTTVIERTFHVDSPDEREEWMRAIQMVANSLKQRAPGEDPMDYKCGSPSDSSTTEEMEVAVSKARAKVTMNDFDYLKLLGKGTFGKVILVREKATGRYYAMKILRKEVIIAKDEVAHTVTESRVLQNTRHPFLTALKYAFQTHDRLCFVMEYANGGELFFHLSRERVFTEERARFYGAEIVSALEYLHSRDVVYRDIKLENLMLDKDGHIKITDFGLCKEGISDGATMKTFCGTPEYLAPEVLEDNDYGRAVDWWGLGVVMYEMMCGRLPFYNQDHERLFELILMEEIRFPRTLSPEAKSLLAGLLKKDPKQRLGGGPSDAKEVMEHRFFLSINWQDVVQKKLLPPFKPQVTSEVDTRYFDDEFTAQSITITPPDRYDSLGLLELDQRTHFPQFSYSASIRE
Chain of Akt3 (Q9Y243 whole entry): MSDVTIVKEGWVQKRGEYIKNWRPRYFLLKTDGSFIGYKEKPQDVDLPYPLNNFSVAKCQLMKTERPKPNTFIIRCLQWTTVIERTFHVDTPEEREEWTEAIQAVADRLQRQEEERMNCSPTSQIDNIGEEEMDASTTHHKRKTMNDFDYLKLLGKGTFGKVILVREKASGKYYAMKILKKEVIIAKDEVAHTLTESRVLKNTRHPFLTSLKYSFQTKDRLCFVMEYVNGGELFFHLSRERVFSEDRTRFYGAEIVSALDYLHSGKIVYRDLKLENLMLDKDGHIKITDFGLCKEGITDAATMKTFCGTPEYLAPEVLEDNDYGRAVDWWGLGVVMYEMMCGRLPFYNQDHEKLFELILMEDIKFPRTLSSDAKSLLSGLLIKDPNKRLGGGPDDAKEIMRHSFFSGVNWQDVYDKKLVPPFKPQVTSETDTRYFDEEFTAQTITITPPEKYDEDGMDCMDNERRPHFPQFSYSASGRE
T2 sequence (P31749 whole entry): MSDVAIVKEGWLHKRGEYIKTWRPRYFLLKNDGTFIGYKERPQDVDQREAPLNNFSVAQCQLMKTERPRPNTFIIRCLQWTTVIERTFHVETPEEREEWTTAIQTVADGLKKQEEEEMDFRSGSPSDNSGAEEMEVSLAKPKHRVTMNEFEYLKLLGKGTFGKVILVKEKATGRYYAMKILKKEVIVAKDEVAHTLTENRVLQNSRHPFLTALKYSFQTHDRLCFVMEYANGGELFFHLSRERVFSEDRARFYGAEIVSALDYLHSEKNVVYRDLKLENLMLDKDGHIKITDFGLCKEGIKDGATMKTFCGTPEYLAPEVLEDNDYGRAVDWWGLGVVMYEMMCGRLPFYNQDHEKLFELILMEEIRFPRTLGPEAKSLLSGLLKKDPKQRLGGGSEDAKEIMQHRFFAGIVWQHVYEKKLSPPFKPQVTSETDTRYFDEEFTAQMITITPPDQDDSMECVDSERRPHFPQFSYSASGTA
T1 sequence (P31749 whole entry): as above

Row | Structure (SMILES) | EC50 (KU-19-19 cells) [µM] | EC50 (BT-474 cells; [3]) [µM] | EC50 (MCF-7 cells; [4]) [µM] | IC50 (Akt3) [µM] | covalent binding to Akt1 (mass increase by LC-MS) (wild-type Akt1) | EC50 (T47D cells) [µM] | IC50 (Akt1 [1]; [5]) [µM] | EC50 (AN3CA cells; [6]) [µM] | IC50 (Akt2) [µM] | EC50 (ZR-75-1 cells; [7]) [µM] | melting point [°C] | also measured
1 | NC1(C(=O)N[C@@H](CCO)c2ccc(Cl)cc2)CCN(c2ncnc3[nH]ccc23)CC1 [Capivasertib, reference compound] | 3.06 ± 2.33 | 1.6 ± 0.45 | 2.65 ± 0.555 | – | – | – | – | – | – | – | – | –
2 | C=CC(=O)Nc1ccccc1-c1cn(C2CCN(Cc3ccc(-c4nc5ccccn5c4-c4ccccc4)cc3)CC2)nn1 [Compound 4, N ‐[2‐(1‐{1‐[4‐(3‐Phenylimidazo[1,2‐a]pyridin‐2‐yl)benzyl]piperidin‐4‐yl}‐1H‐1,2,3‐triazol‐4‐yl)phenyl]acrylamide] | 29.4 ± 9.59 | 15.4 ± 6.13 | 8.55 ± 1.25 | > 20 | partial covalent binders; also recorded: partial labelling | 15.2 ± 3.25 | 0.925 ± 0.277 | 12.3 ± 3.48 | > 20 | 1.75 ± 0.428 | – | –
3 | C=CC(=O)Nc1cccc(-c2cn(C3CCN(Cc4ccc(-c5nc6ccc(C)cn6c5-c5ccccc5)cc4)CC3)nn2)c1 [Compound 10, N ‐[3‐(1‐{1‐[4‐(6‐Methyl‐3‐phenylimidazo[1,2‐a]pyridin‐2‐yl)benzyl]piperidin‐4‐yl}‐1H‐1,2,3‐triazol‐4‐yl)phenyl]acrylamide] | 17.3 ± 7.97 | 22.8 ± 3 | 6.73 ± 3.48 | > 20 | partial covalent binders | 9.18 ± 4.72 | 4.63 ± 0.244 | 5.61 ± 2.85 | > 20 | 3.32 ± 3.11 | 217 to 219 | –
4 | NC1(c2ccc(-c3nc4ccn5c(=O)[nH]nc5c4cc3-c3ccccc3)cc2)CCC1 [MK‐2206, reference compound] | 5.53 ± 0.927 | 1.68 ± 0.316 | – | – | – | – | – | – | – | 0.063 ± 0.021 | – | –
5 | C=CC(=O)Nc1ccc2[nH]c(=O)n(C3CCN(Cc4ccc(-c5nc6cc[nH]c(=O)c6cc5-c5ccccc5)cc4)CC3)c2c1 [Compound 2, borussertib, reference compound] | 7.82 ± 3.27 | – | – | – | – | – | – | – | – | – | – | EC50 (BT-474 cells; BT-474, read-out: EC50 BT‐474): 0.373 ± 0.054 µM; EC50 (MCF-7 cells; MCF7, read-out: EC50 MCF‐7): 0.277 ± 0.09 µM
6 | C=CC(=O)Nc1ccc(-c2cn(C3CCN(Cc4ccc(-c5nc6ccccn6c5-c5ccccc5)cc4)CC3)nn2)cc1 [Compound 5, N ‐[4‐(1‐{1‐[4‐(3‐Phenylimidazo[1,2‐a]pyridin‐2‐yl)benzyl]piperidin‐4‐yl}‐1H‐1,2,3‐triazol‐4‐yl)phenyl]acrylamide] | 9.83 ± 1.6 | 6.99 ± 2.37 | 3.39 ± 0.348 | > 20 | no indication of covalent binding | 3.79 ± 1.94 | 2.88 ± 1.73 | 5.44 ± 1.56 | > 20 | 3.54 ± 0.44 | – | –
7 | C=CC(=O)Nc1cccc(-c2cn(C3CCN(Cc4ccc(-c5nc6ccccn6c5-c5cccc(C)c5)cc4)CC3)nn2)c1 [Compound 9, N ‐{3‐[1‐(1‐{4‐[3‐(m‐Tolyl)imidazo[1,2‐a]pyridin‐2‐yl]benzyl}piperidin‐4‐yl)‐1H‐1,2,3‐triazol‐4‐yl]phenyl}acrylamide] | 9.45 ± 1.04 | 11.2 ± 4.73 | 3.61 ± 0.804 | > 20 | – | 4.59 ± 1.31 | > 20 | 5.13 ± 1.28 | > 20 | 4.2 ± 0.817 | 130 to 132 | IC50 Akt1 (Akt1 [1]; wild-type Akt1, mean ± SD, n=3): inactive
8 | CC(C)NC[C@@H](C(=O)N1CCN(c2ncnc3c2[C@H](C)C[C@H]3O)CC1)c1ccc(Cl)cc1 [Ipatasertib, reference compound] | 4.23 ± 3.39 | – | – | – | – | 0.447 ± 0.002 | – | – | – | – | – | EC50 (BT-474 cells; BT-474, read-out: EC50 BT‐474): 2.37 ± 0.745 µM; EC50 (MCF-7 cells; MCF7, read-out: EC50 MCF‐7): 5.04 ± 1.83 µM; EC50 (AN3CA cells): 0.925 ± 0.457 µM; EC50 (ZR-75-1 cells; ZR-75-1, read-out: EC50 ZR‐75‐1): 0.219 ± 0.083 µM
9 | C=CC(=O)Nc1ccc(-c2cn(C3CCN(Cc4ccc(-c5nc6ccccn6c5-c5ccccc5C)cc4)CC3)nn2)cc1 [Compound 8, N ‐{4‐[1‐(1‐{4‐[3‐(o‐Tolyl)imidazo[1,2‐a]pyridin‐2‐yl]benzyl}piperidin‐4‐yl)‐1H‐1,2,3‐triazol‐4‐yl]phenyl}acrylamide] | 7.63 ± 0.636 | 7.39 ± 2.34 | 4.3 ± 1.18 | > 20 | – | 4.52 ± 1.59 | > 20 | 5.87 ± 0.403 | > 20 | 5.32 ± 0.426 | 169 to 170 | –
10 | C=CC(=O)Nc1cccc(-c2cn(C3CCN(Cc4ccc(-c5nc6ccccn6c5-c5ccccc5C)cc4)CC3)nn2)c1 [Compound 7, N ‐{3‐[1‐(1‐{4‐[3‐(o‐Tolyl)imidazo[1,2‐a]pyridin‐2‐yl]benzyl}piperidin‐4‐yl)‐1H‐1,2,3‐triazol‐4‐yl]phenyl}acrylamide] | 7.69 ± 0.664 | 9.91 ± 4.14 | 4.38 ± 1.59 | > 20 | – | 4.86 ± 0.627 | > 20 | 5.71 ± 0.706 | > 20 | 4.19 ± 1.11 | 124 to 126 | –
11 | C=CC(=O)Nc1ccccc1-c1cn(C2CCN(Cc3ccc(-c4nc5ccccn5c4-c4ccccc4C)cc3)CC2)nn1 [Compound 6, N ‐{2‐[1‐(1‐{4‐[3‐(o‐Tolyl)imidazo[1,2‐a]pyridin‐2‐yl]benzyl}piperidin‐4‐yl)‐1H‐1,2,3‐triazol‐4‐yl]phenyl}acrylamide] | 22 ± 4.98 | > 30 | 18.2 ± 2.56 | > 20 | – | > 30 | > 20 | 14.7 ± 2.35 | > 20 | 15.5 ± 1.86 | 128 to 130 | –
12 | C=CC(=O)Nc1cccc(-c2cn(C3CCN(Cc4ccc(-c5nc6cc[nH]c(=O)c6cc5-c5ccccc5)cc4)CC3)nn2)c1 [Compound 13, N ‐[3‐(1‐{1‐[4‐(5‐Oxo‐3‐phenyl‐5,6‐dihydro‐1,6‐naphthyridin‐2‐yl)benzyl]piperidin‐4‐yl}‐1H‐1,2,3‐triazol‐4‐yl)phenyl]acrylamide] | 5.65 ± 1.49 | 0.469 ± 0.162 | 0.329 ± 0.225 | – | covalent binders | 0.088 ± 0.031 | 0.007 ± 0.0018 | 0.425 ± 0.058 | – | 0.02 ± 0.007 | 252 to 254 | Ki (Akt1 [2]; inhibition constant of inactivation): 0.0105 ± 0.0008 µM; k inact (Akt1 [2]): 0.042 ± 0.012 min⁻¹; k inact/K I (Akt1 [2]): 66000 ± 15000 M⁻¹ s⁻¹; IC50 (Akt1 [1]; IC50, Akt1, repeated in Table 2 for comparison, mean ± SD, n=3): 0.007 ± 0.0018 µM; decrease in activity against Akt1 compared to control compound 2 (Akt1 [1]; IC50 ratio to borussertib (2)): less than 10 fold
